# Reference: ChEMBL document CHEMBL1128092, “Potent, orally bioavailable HIV-1 protease inhibitors containing noncoded D-amino acids” (Bioorg Med Chem Lett, 1995)
# Columns and labels:
# [1] = target: Human immunodeficiency virus type 1 protease (Human immunodeficiency virus 1, UniProt Q72874); experiment: Inhibitory activity against HIV-1 protease
# CCRF-CEM [2] = experiment: (§1) Antiviral activity to inhibit viral replication of HIV-1 infected CEM cells; type: functional; conditions: Homo sapiens
# CCRF-CEM [3] = experiment: as §1; type: functional, cell-based; conditions: Homo sapiens
SMILES,IC50 [1] [µM],IC95 (CCRF-CEM [2]) [µM],IC50 (CCRF-CEM [3]) [µM]
CC(C)(C)NC(=O)[C@@H]1C[C@@H]2SCC[C@@H]2CN1C[C@@H](O)[C@H](Cc1ccccc1)NC(=O)[C@@H](CS(=O)(=O)c1ccc(F)cc1)NC(=O)C(F)(F)F,< 0.0002,0.058,0.015
CC(C)(C)NC(=O)[C@@H]1C[C@@H]2CCCC[C@@H]2CN1C[C@@H](O)[C@H](Cc1ccccc1)NC(=O)[C@@H](CS(=O)(=O)c1ccc2ccccc2c1)NS(C)(=O)=O,0.0005,0.01,0.0032
CC(C)(C)NC(=O)[C@@H]1C[C@@H]2SCC[C@@H]2CN1C[C@@H](O)[C@H](Cc1ccccc1)NC(=O)[C@@H](CS(=O)(=O)c1cccc2cccnc12)NS(C)(=O)=O,0.00071,0.25,0.072
CC(=O)N[C@H](CS(=O)(=O)c1ccc2ccccc2c1)C(=O)N[C@@H](Cc1ccccc1)[C@H](O)CN1C[C@H]2CCS[C@H]2C[C@H]1C(=O)NC(C)(C)C,0.0005,0.023,0.0019
CC(C)(C)NC(=O)[C@@H]1C[C@@H]2SCC[C@@H]2CN1C[C@@H](O)[C@H](CSc1ccccc1)NC(=O)[C@@H](CS(=O)(=O)c1ccc2ccccc2c1)NC(=O)C(F)(F)F,0.0018,0.24,0.057
CC(C)(C)NC(=O)[C@@H]1C[C@@H]2CCCC[C@@H]2CN1C[C@@H](O)[C@H](Cc1ccccc1)NC(=O)[C@@H](C[S+]([O-])c1ccc(F)cc1)NS(C)(=O)=O (some centres undefined),0.0006,0.031,0.0091
CC(C)CN(C[C@@H](O)[C@H](Cc1ccccc1)NC(=O)[C@@H](C[S+]([O-])c1ccc2ccccc2c1)NS(C)(=O)=O)C(=O)NC(C)(C)C (some centres undefined),0.0021,0.062,0.014
CC(C)(C)NC(=O)[C@@H]1C[C@@H]2CCCC[C@@H]2CN1C[C@@H](O)[C@H](Cc1ccccc1)NC(=O)[C@@H](CS(=O)(=O)c1ccc(F)cc1)NS(C)(=O)=O,0.002,0.054,0.017
CC(=O)N[C@H](CS(=O)(=O)c1ccc(F)cc1)C(=O)N[C@@H](CSc1ccccc1)[C@H](O)CN1C[C@H]2CCS[C@H]2C[C@H]1C(=O)NC(C)(C)C,0.0018,0.18,0.057
CC(C)CN(C[C@@H](O)[C@H](Cc1ccccc1)NC(=O)[C@@H](CSc1ccc(F)cc1)NS(C)(=O)=O)C(=O)NC(C)(C)C,0.085,36,17
CC(=O)N[C@H](CS(=O)(=O)c1cccc2cccnc12)C(=O)N[C@@H](Cc1ccccc1)[C@H](O)CN1C[C@H]2CCCC[C@H]2C[C@H]1C(=O)NC(C)(C)C,0.0017,0.064,0.0019
CC(C)(C)NC(=O)[C@@H]1C[C@@H]2CCCC[C@@H]2CN1C[C@@H](O)[C@H](Cc1ccccc1)NC(=O)[C@@H](CSc1ccc2ccccc2c1)NS(C)(=O)=O,0.0051,1.9,0.071
CC(C)CN(C[C@@H](O)[C@H](Cc1ccccc1)NC(=O)[C@@H](CS(=O)(=O)c1ccc(F)cc1)NS(C)(=O)=O)C(=O)NC(C)(C)C,0.01,21,10
CC(=O)N[C@H](CS(=O)(=O)c1ccc(F)cc1)C(=O)N[C@@H](Cc1ccccc1)[C@H](O)CN1C[C@H]2CCS[C@H]2C[C@H]1C(=O)NC(C)(C)C,–,0.73,0.07
CC(=O)N[C@H](CS(=O)(=O)c1ccc2ccccc2c1)C(=O)N[C@@H](Cc1ccccc1)[C@H](O)CN1C[C@H]2CCCC[C@H]2C[C@H]1C(=O)NC(C)(C)C,0.0016,0.022,0.0095
CC(C)(C)NC(=O)[C@@H]1C[C@@H]2CCCC[C@@H]2CN1C[C@@H](O)[C@H](Cc1ccccc1)NC(=O)[C@@H](C[S+]([O-])c1ccc2ccccc2c1)NS(C)(=O)=O (some centres undefined),0.0004,0.0082,0.0038
CC(C)(C)NC(=O)[C@@H]1C[C@@H]2SCC[C@@H]2CN1C[C@@H](O)[C@H](Cc1ccccc1)NC(=O)[C@@H](CS(=O)(=O)c1cccc2cccnc12)NC(=O)C(F)(F)F,0.00021,0.062,0.018
CC(C)(C)NC(=O)[C@@H]1C[C@@H]2SCC[C@@H]2CN1C[C@@H](O)[C@H](Cc1ccccc1)NC(=O)[C@@H](CS(=O)(=O)c1ccc2ccccc2c1)NS(C)(=O)=O,< 0.0002,0.085,0.027
CC(C)CN(C[C@@H](O)[C@H](Cc1ccccc1)NC(=O)[C@@H](CSc1ccc2ccccc2c1)NS(C)(=O)=O)C(=O)NC(C)(C)C,0.05,9.9,4.7
CC(C)(C)NC(=O)[C@@H]1C[C@@H]2SCC[C@@H]2CN1C[C@@H](O)[C@H](Cc1ccccc1)NC(=O)[C@@H](CS(=O)(=O)c1ccc(F)cc1)NS(C)(=O)=O,0.00022,0.19,0.043
CC(=O)N[C@H](CSCc1ccccc1)C(=O)N[C@@H](Cc1ccccc1)[C@H](O)CN1C[C@H]2CCCC[C@H]2C[C@H]1C(=O)NC(C)(C)C,0.006,0.305,0.077
CC(C)(C)NC(=O)[C@@H]1C[C@@H]2SCC[C@@H]2CN1C[C@@H](O)[C@H](Cc1ccccc1)NC(=O)[C@@H](CS(=O)(=O)c1ccc2ccccc2c1)NC(=O)C(F)(F)F,< 0.0002,0.032,0.0046
CC(=O)N[C@H](CS(=O)(=O)c1cccc2cccnc12)C(=O)N[C@@H](Cc1ccccc1)[C@H](O)CN1C[C@H]2CCS[C@H]2C[C@H]1C(=O)NC(C)(C)C,0.00042,0.3,0.14
CC(C)(C)NC(=O)[C@@H]1C[C@@H]2CCCC[C@@H]2CN1C[C@@H](O)[C@H](Cc1ccccc1)NC(=O)[C@@H](CSc1ccc(F)cc1)NS(C)(=O)=O,0.024,0.55,0.15
CC(C)(C)NC(=O)[C@@H]1C[C@@H]2SCC[C@@H]2CN1C[C@@H](O)[C@H](CSc1ccccc1)NC(=O)[C@@H](CS(=O)(=O)c1ccc(F)cc1)NC(=O)C(F)(F)F,0.01,0.84,0.18
